Source: patent US10870875B2, “Metalloprotein compositions” (Commonwealth Scientific and Industrial Research Organisation, priority 2014, dated 2020)
pKd: −log10 of the molar value.

How the values were obtained:
[1] = biological target: T1, recombinant honeybee (Apis mellifera) silk protein AmelF3, unmodified, SEQ ID NO: 39 (Apis mellifera, UniProt A0ACM8QI31); assay: Binding of macrocycles/chelates to AmelF3 sponges or films (colour retained after washing, UV/Vis); conditions: qualitative; for Binding properties: sponge, macrocycle in excess, retention of colour after washing; for binding to silk protein (in words): sponge or film
T1 construct: sponges and films
Experimental: Full length, recombinant honeybee silk proteins (AmelF3) without affinity purification tags, were produced by fermentation in Escherichia coli as described in Weisman et al. (2010). Full length, recombinant Weaver Ant/Green Ant (Oecophylla smaragdina) silk proteins (GA1, GA2, GA3, GA4) without affinity purification tags, were produced by fermentation in Escherichia coli following the same procedures as outlined in Weisman et al. (2010).
(§1) AmelF3 sponges were prepared as described in example 1. […] The colour change observed with honeybee silk indicates a change in the coordination of the iron metal centre within the haem group, producing a material with a similar coordination to red haemoglobin. The colour was not removed by extensive washing with 70% methanol, 0.1M HCl or 0.1M NaCl.
An embodiment of the composition of the present invention was formed by co-drying a solution of AmelF3 and haem b. Briefly, 2 mg haem b and 20 mg AmelF3 silk sponge was dissolved in 1 mL of HFIP overnight at room temperature. The solution was aliquoted into either a cuvette or 24-well plate and dried at room temperature. The dried film was soaked overnight in 70% methanol to make the film insoluble in water.
Alternatively, haem b was ‘leached’ into a pre-formed film. The AmelF3 material was formed as described in example 1. The silk material was soaked in a solution of haem b (0.5 mg/mL; haem b in excess) in 70% methanol solution for between 1 and 48 hours followed by washing with 70% methanol to remove any unbound haem b and dried at room temperature.
AmelF3 films with different ratios of haem b to AmelF3 were prepared by co-drying haem and AmelF3 HFIP solutions. At low haem loadings (haem:protein molar ratios of 1:1 and 1:2), a sharp Soret peak at 404 nm was observed, indicative of all the haem being coordinated (FIG. 3). As the concentration of haem b relative to the protein was increased, the Soret peak broadened and shifted to lower wavelengths indicating an increase in the amount of uncoordinated haem (FIG. 3).
(§2) The ability of sponges generated from recombinant AmelF3 to bind a range of macrocyles was tested by adding a solution of the macrocmacrocycle containing an excess of the macrocycle to be tested to the AmelF3 sponge and observing the colour of the sponge and whether the sponge retained colour after washing. The strength of macrocycle binding was assessed qualitatively by assessing the intensity of the colour retained by the sponge after washing. Strong binding to the sponge refers to the finding that the macrocycle cannot be washed out with aqueous methanol, organic solvents, 0.1 M HCl or 0.1 M NaOH.
(§3) Films generated from recombinant honeybee silk protein AmelF3 containing dicyanocobyrinic acid heptamethyl ester were prepared as described in example 3. UV/Vis spectrum were recorded for a film generated from recombinant AmelF3 containing dicyanocobyrinic acid heptamethyl ester and a solution of dicyanocobyrinic acid heptamethyl ester without AmelF3 (FIG. 8).

[2] = biological target: T2, Apis mellifera AmelF3 (SEQ ID NO: 39) variant Tyr76Ala (Apis mellifera, UniProt A0ACM8QI31, Y95A); assay: Binding of chelates to AmelF3 Tyr76Ala sponges or films; conditions: sponge washed with aqueous methanol, qualitative
T2 construct: sponge or film
T2 sequence (A0ACM8QI31 entry or part of it Y95A): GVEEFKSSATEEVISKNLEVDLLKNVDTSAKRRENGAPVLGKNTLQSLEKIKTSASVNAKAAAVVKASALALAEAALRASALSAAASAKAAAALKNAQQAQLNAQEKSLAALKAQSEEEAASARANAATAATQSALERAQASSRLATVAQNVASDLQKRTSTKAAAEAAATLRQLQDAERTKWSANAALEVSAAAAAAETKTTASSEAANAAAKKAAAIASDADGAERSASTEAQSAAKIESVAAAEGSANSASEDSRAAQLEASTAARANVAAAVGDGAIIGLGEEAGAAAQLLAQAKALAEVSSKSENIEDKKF
Experimental: Site directed mutagenesis of honeybee silk proteins was carried using methods known to the person skilled in the art. For example, to generate AmelF3 Tyr76Ala, the forward primer 5′-[…]-3′ (SEQ ID NO: 80) with the corresponding reverse primer was employed and site directed mutagenesis was carried out using Pfx 50 DNA polymerase from Invitrogen following the Pfx50 manufactures instructions. All AmelF3 mutants were expressed and purified using a similar procedure as the unmodified AmelF3 silk protein. To generate AmelF3 Tyr76His, the forward primer 5′-[…]-3′ (SEQ ID NO: 81) with the corresponding reverse primer was employed. To generate AmelF3 Ala97His, the forward primer 5′-[…]-3′ (SEQ ID NO: 82) was used.
To test whether Tyr76 was indeed the coordinating ligand, the present inventors replaced Tyr76 with an alanine using site directed mutagenesis of the AmelF3 silk gene.

AmelF3 in film = assay: Binding of dicyanocobyrinic acid heptamethyl ester to AmelF3 film (UV/Vis); set-up: species or system Apis mellifera; conditions: peak shift from 370 to 360
Experimental: as §3

[3] = biological target: T3, recombinant honeybee (Apis mellifera) silk protein AmelF3, SEQ ID NO: 39, containing bound haem b (film) (Apis mellifera, UniProt A0ACM8QI31); assay: NO binding to reduced AmelF3-haem b film (UV/Vis); conditions: NO added as diethylamine NONOate to dithionite-reduced film, 50 mM phosphate pH 7; decrease in absorbance at 420 nm, sigmoidal fit modified from Hill equation; read-out: dissociation constant
T3 sequence (A0ACM8QI31 20-335): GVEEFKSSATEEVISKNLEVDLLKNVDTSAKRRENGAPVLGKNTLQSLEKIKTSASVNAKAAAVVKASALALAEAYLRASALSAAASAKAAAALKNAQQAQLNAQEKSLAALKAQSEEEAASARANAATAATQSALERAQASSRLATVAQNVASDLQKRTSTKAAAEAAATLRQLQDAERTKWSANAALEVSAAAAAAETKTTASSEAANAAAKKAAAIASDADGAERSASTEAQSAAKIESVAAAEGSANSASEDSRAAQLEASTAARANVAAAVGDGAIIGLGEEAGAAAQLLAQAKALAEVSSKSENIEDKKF
Source text: A. UV/Vis spectra obtained when silk protein films generated from recombinant honeybee silk protein AmelF3 were bound to increasing NO concentrations. B. Ratio change of absorbance change at 420 nm as NO concentrations are increased. Either the decrease in absorbance at 420 nm or increase in absorbance at 390 nm can be used. The decrease in absorbance at 420 nm can be converted into the fraction of nitric oxide binding site occupied by NO and plotted against NO concentration, and fitted to a sigmoidal curve modified from the Hill equation with a dissociation constant of 6.7 μM and a limit of detection of ˜1 μM.
AmelF3-haem b film was used as the porphyrin-silk film. Freshly prepared sodium dithionite (100 mM) in 50 mM phosphate buffer (pH 7) were used as the reducing agent. 10-100 μL was added to a 50 mM phosphate buffer (pH 7) covering the porphyrin-silk film. Sodium persulfate was used at the oxidising agent a similar manner to sodium dithionite. […] Changes in the UV/Vis spectrum were monitored to determine redox states and measure NO binding (FIGS. 10A and 10B). […]
Exposure to increasing NO concentration caused the Soret peak to shift from 421 nm to 395 nm. From 0-7 μM, there was a linear relationship between the decrease in absorbance at 421 nm and the concentration of NO, with a limit of detection for NO of 1 μM.

[4] = tested on: materials generated from recombinant honeybee silk proteins (AmelF3 sponge); assay: Binding of macrocycles to recombinant AmelF3 honeybee silk sponges, judged by colour retained after washing; set-up: species or system Apis mellifera; conditions: excess macrocycle in solution, intensity of colour retained after washing
Experimental: as §1, §2

Compound | Binding properties [1] | binding to silk protein (in words) [1] | other results
C=Cc1c(C)c2cc3[nH]c(cc4nc(cc5nc(cc1[nH]2)C(C)=C5CCC(=O)OC)C(CCC(=O)OC)=C4C)c(C)c3C=C | Does not bind |  | 
COC(=O)CC[C@@H]1C2=NC(=C\C3=NC(=C(/C)C4=N[C@@](C)([C@@H]5[N-]/C(=C\2C)[C@](C)(CCC(=O)OC)[C@H]5CC(=O)OC)[C@@](C)(CC(=O)OC)[C@@H]4CCC(=O)OC)/[C@@](C)(CC(=O)OC)[C@@H]3CCC(=O)OC)/C1(C)C.[C-]#N.[C-]#N.[Co+3] [Dicyanocobyrinic acid heptamethyl ester, dicyanocobyrinic acid heptamethyl ester] |  | strongly blind to AmelF3 | binding to silk protein (in words) [2]: did not bind
COC(=O)CC[C@@H]1C2=NC(=C\C3=NC(=C(/C)C4=N[C@@](C)([C@@H]5[N-]/C(=C\2C)[C@](C)(CCC(=O)OC)[C@H]5CC(=O)OC)[C@@](C)(CC(=O)OC)[C@@H]4CCC(=O)OC)/[C@@](C)(CC(=O)OC)[C@@H]3CCC(=O)OC)/C1(C)C.[C-]#N.[C-]#N.[Co+3] [Dicyanocobyrinic acid heptamethyl ester] |  |  | binding to AmelF3 in film (AmelF3 in film): strongly blind
[N]=O [NO, nitric oxide] |  |  | pKd [3]: 5.17
O=S(=O)(O)c1ccc2c(c1)-c1nc-2nc2[nH]c(nc3nc(nc4[nH]c(n1)c1ccc(S(=O)(=O)O)cc41)-c1ccc(S(=O)(=O)O)cc1-3)c1ccc(S(=O)(=O)O)cc21.[Zn+2] [Zn phthalocyanine tetrasulfonic acid, zinc phthalocyanine tetrasulfonic acid] |  | can bind | 
C=CC1=C(C)c2cc3[nH]c(cc4nc(cc5[nH]c(cc1n2)c(C)c5CCC(=O)O)C(CCC(=O)O)=C4C)c(C)c3C=C [drawing 1] | Strongly binds to silk |  | Binding properties [4]: Strongly binds to silk
CCC1=C(C)c2cc3[nH]c(cc4[nH]c(cc5nc(cc1n2)C(C)=C5CC)c(C)c4CC)c(C)c3CC [drawing 2] | Does not bind |  | 
COC(=O)CCC1=C(C)c2cc3[nH]c(cc4nc(cc5[nH]c(cc1n2)c(CCC(=O)OC)c5C)C(S(=O)(=O)O)=C4C)c(S(=O)(=O)O)c3C [drawing 4] | Weak binding |  | Binding properties [4]: Weak binding
C1=CC2C3=NC(=N\C4N/C(=N\C5=NC(=N\C6N/C(=N\3)c3ccccc36)/C3C=CC=CC53)c3ccccc34)/C2C=C1 (stereo not drawn) [drawing 5, Phthalocyanine] |  | no binding is obtained | 
C1=CC2C3=NC(=N\C4N/C(=N\C5=NC(=N\C6N/C(=N\3)c3ccccc36)/C3C=CC=CC53)c3ccccc34)/C2C=C1 (stereo not drawn) [drawing 5] |  |  | Binding properties [4]: Does not bind
CCC1=C(C)c2cc3[nH]c(cc4[nH]c(cc5nc(cc1n2)C(C)=C5CC)c(C)c4CC)c(C)c3CC [etioporphryin I] |  | no binding is obtained | 
O=S(=O)(O)c1ccc2c(c1)-c1nc-2nc2[nH]c(nc3nc(nc4[nH]c(n1)c1ccc(S(=O)(=O)O)cc41)-c1ccc(S(=O)(=O)O)cc1-3)c1ccc(S(=O)(=O)O)cc21 [phthalocyanine tetrasulfonic acid] | Strongly binds |  | 
